The values that follow come from patent US9974760B2, “Compositions and methods for treating cancer” (Chemo-Enhanced LLC, priority 2011, dated 2018).

SMILES strings stand for the structures. “Also recorded” adds a separate entry of the source.

In one assay the test system is L3.6 pancreatic cells. Format: in vivo. The note with it: taxol 3 mg/ml, C6-ceramide 10 mg/ml, i.p. 3×/wk, vs control. Here is the method: Treatment was started 4 days after L3.6 cell injection with thrice weekly (3×/wk) intraperitoneal (i.p.) injections of paclitaxel 3.0 mg/ml with or without C6-ceramide (10 mg/ml) for 2 weeks. Mouse survival (FIGS. 2A and 2C), tumor volume (in cm^3; FIG. 2B), mouse body weight (in grams) were recorded (FIG. 2E). The average rate of tumor development was calculated by total tumor volume dividing by total number of days monitored (FIG. 2C).
(§1) SCID/Beige/Taconic nude male mice (22-25 g; 6-8 weeks old) were ear tagged and randomized into 4 different groups (Control, Ceramide, gemcitabine, Ceramide+gemcitabine) combining 5 mice each prior to inoculation subcutaneous (s.c.) with 2×10^6 L3.6 cells in a 0.1 ml volume into the internal surface of the right thigh. Treatment was started 4 days after L3.6 cell injection with thrice weekly (3×/wk) intraperitoneal (i.p.) injections of gemcitabine (two doses: 5.0 and 10.0 mg/ml) with or without C6-ceramide (10 mg/ml) for 2 weeks. Mouse survival (FIGS. 3A, 3B, and 3E) and tumor volume (in cm^3; FIGS. 3C and 3D) were recorded (FIG. 3E). Pancreatic cancer cell lines, including L3.6 cells (FIG. 3F), Panc-1 cells (FIG. 3G) and MIA-PaCa2 cells (MIA, FIG. 3H) were cultured in basic DMEM medium and were treated with gemcitabine (Gem, 1 μg/ml). Mitomycin C was always present in the media to prevent cell proliferation from occurring.
SCID/Beige/Taconic male mice were inoculated with 2×10^6 L3.6 pancreatic cells and treated […] 4 days post tumor implant with thrice weekly (3×/wk) intraperitoneal (I.P.) injections of paclitaxel (taxol) 3.0 mg/ml or gemcitabine (Gem) 10 mg/ml after treatment and were autopsied when near death (as per IRB committee). Mouse survival, tumor volume (in cm^3), and body weight (in grams) were recorded. Average rate of tumor development was calculated by dividing total tumor volume by total number of days monitored.
The possible combination effect of C6-ceramide on gemcitabine-induced cytotoxicity (in vitro) and regression (in vivo) of the L3.6 pancreatic cancer cell was also tested according to the methods described in Examples 2 and 3.

Assay [1] concerns L3.6 pancreatic cancer cells. The assay can be described thus: Cell viability / cell death (MTT) in L3.6 pancreatic cancer cells. Format: cell-based, human. The note with it: for cell death of L3.6 cells: 2.5 μg/ml C6-ceramide, 1.5 μg/ml taxol. Here is the method:
L3.6 pancreatic cancer cells, cultured either in the basic DMEM medium or with 10% FBS, were treated with the indicated doses of taxol in the presence or absence of C6-ceramide (10 μg/ml) for 48 hours and cell viability was detected by MTT assay (FIGS. 1A-1B). L3.6 cells, cultured either in basic DMEM medium or with 10% FBS, were treated with the indicated dose of C6-ceramide in the presence or absence of taxol (1.5 μg/ml) for 48 hours and cell viability was detected by MTT assay (FIGS. 1C-1D). Mitomycin C (10 μg/ml) was always present in the media to prevent cell proliferation from occurring. The data represents the mean±SD of at least triplicate experiments. *P<0.05 versus group without C6-ceramide presents (FIGS. 1A-1B). **P<0.05 versus group without taxol presents (FIGS. 1C-1D).
as §1, with “FIGS. 3A-3H show synergistic anti-tumor effects of C6-ceramide and gemcitabine in vivo and in vitro. SCID/Beige/Taconic” for “SCID/Beige/Taconic”, “occurring. The data represent the mean±SD of at least triplicate experiments. *P<0.05 versus group without C6-ceramide presents. The experiments were repeated at least three times and similar results were observed.” for “occurring.”
Pancreatic cancer cell lines L3.6 cells were left untreated or treated with gemcitabine (Gem, 1 μg/ml) or taxol (1.5 μg/ml) in the presence or absence of C6-ceramide (10 μg/ml) for 2, 4 and 6 hours, AKT/mTORC1 and ERK activation were detected by Western Blot using indicated antibodies (FIGS. 5A and 5C). p-AKT (S473) and p-ERK at 4 hour time intervals for each treatment quantified (FIGS. 5B and 5D). L3.6 cells were pretreated with various inhibitors including PI3K/AKT inhibitor LY 294002 (LY, 1 μM), mTORC1 inhibitor rapamycin (100 nM), MEK/ERK inhibitor U0126 (1 μg/ml) or gemcitabine (1 μg/ml) for 48 hours, cell death was detected 48 hours later (FIG. 5E). The effects of the various inhibitors described above on AKT/mTORC1 and ERK activation were also detected by Western Blots using commercial available antibodies (FIG. 5F). *P<0.05 versus group without C6-ceramide presents. The experiments were repeated at least three times and similar results were observed.
Cell viability was measured by the 3-[4m5-dimethylthylthiazol-2-y]-2.5 diphenyltetrazolium bromide (MTT) method, as described in Cao et al. (2009) Sci. Signal, 2:RA17. Briefly, the cells were collected and seeded in 96-well plate at a density of 2×10^5 cells/cm^2. Different seeding densities were optimized at the beginning of the experiments. After overnight incubation cells were exposed to fresh medium containing indicated reagents at 37° C. After incubation for different time periods, 20 ul of MTT tetrazolium (Sigma, St. Louis, Mo.) salt dissolved in Hank's balanced solution at a concentration of 5 mg/ml was added to each well and incubated in a CO2 incubator for an additional 4 hours. The medium was subsequently aspirated from each well and 150 ul of DMSO (Sigma, St. Louis, Mo.) was added to dissolve formazan crystals and the absorbance of each well was obtained using a Dynatech MR5000 plate reader at a test wavelength of 490 nm with a reference wavelength of 630 nm. […]

The test system of another assay is AMPK/ACC. Briefly: AMPK/ACC signaling in L3.6 cell line. Format: cell-based. Conditions: for AMPK activation: taxol alone. The source says: The molecular mechanism involved in C6-ceramide induced chemosensitization effects was examined by focusing on taxol.
To further confirm the requirement of AMPK activation in this synergistic effect, siRNA directed against AMPK can be used.

For `CCCCCCCCCCCCC/C=C/[C@@H](O)[C@H](CO)NC(=O)CCCCC` [C6-ceramide, N-hexanoyl-D-sphingosine], in the assay with L3.6 pancreatic cells, the mouse survival result is listed as “minimal effects” and the tumor volume entry is given as “minimal effects”. In addition, the sensitization to cetuximab entry in assay [1] (L3.6 cells) is listed as “markedly sensitized”. In addition, the “enhancement of paclitaxel induced cell death” value in assay [1] (L3.6 cells, dose dependent manner) is “dramatically enhanced”. Besides, the “L3.6 cell death, agent alone” value in assay [1] (basic DMEM medium, MTT) is listed as “limited effects”. In assay [1] (cultured in 10% FBS), the L3.6 cell death result is “neither taxol or C6-ceramide alone had any meaningful effects” and the “cell death of L3.6 cells” value is “neither of these two alone had any measurable effect”. Besides, the “effect on Taxol induced AMPK/ACC signaling (phosphorylation)” value in the assay on AMPK/ACC (C6-ceramide added to taxol, L3.6 cell line) is given as “enhancing; also recorded: dramatically enhances”.
Take `CC(=O)O[C@H]1C(=O)[C@@]2(C)[C@H]([C@H](OC(=O)c3ccccc3)[C@]3(O)C[C@H](OC(=O)[C@H](O)[C@@H](NC(=O)c4ccccc4)c4ccccc4)C(C)=C1C3(C)C)[C@]1(OC(C)=O)CO[C@@H]1C[C@@H]2O` [paclitaxel]: in the assay with L3.6 pancreatic cells, the mouse survival entry is reported as “minimal effects” and the tumor volume entry is “minimal effects”. Also, the L3.6 cell death result in assay [1] (basic DMEM medium, MTT, 48 hours, paclitaxel 1.5 μg/ml alone or combined with C6-ceramide) is on record as “less than 5%”. In assay [1] (cultured in 10% FBS), the L3.6 cell death entry is recorded as “neither taxol or C6-ceramide alone had any meaningful effects” and the “cell death of L3.6 cells” value is recorded as “neither of these two alone had any measurable effect”. Also, the AMPK activation entry in the assay on AMPK/ACC (listed as Taxol) is given as “strongly induce”. For the same compound, the AMPK activation entry with AMPK/ACC (listed as taxol) is listed as “moderate AMPK activation”.
